In patent US20210330731A1, “TOPICAL SALVE FORMULATIONS FOR DERMAL ALKALOID DELIVERY” (priority 2020, published 2021):

Test: Topical application of alkaloid-containing analgesic salve formulations, observed pain relief
Format: in vivo, patients
Settings: for notable effect of secondary ingredient added to formulation: secondary ingredient in topical formulation
Source text: In most embodiments, three-cup batches of oil and wax (e.g.; 2¼ cup oil, ¾ cup wax or other hardening agent) were infused with an extract produced from at least two ounces of plant matter processed using the above method. In a preferred embodiment, an extract produced from around 4.5 to 6 ounces of herbal material yielded the best results as far as optimal pain relief for the amount of product used.
In one embodiment, a formulation for a kratom alkaloid-based topical product involves extracting alkaloids from kratom powder into a food-grade oil (such as coconut oil) at 160° F. The powder may be combined with a lecithin (such as a sunflower lecithin) to aid in extraction.
In a further embodiment, a formulation involves extracting alkaloids from kratom powder into a food-grade oil at 160° F. for two hours and adding one or more carrier oils. The carrier oils comprise black pepper oil, turmeric oil, peppermint oil and lemon oil. A hardening agent, such as beeswax, may also be added. Piperine (a black pepper alkaloid), curcumin (a metabolite of turmeric), peppermint oil, and lemon oil are intended as dermal carriers and absorption enhancers. Piperine is known to increase curcumin bioavailability.
In a further embodiment, a severe pain relief formulation involves extracting alkaloids from kratom powder into a food-grade oil at 160° F. for two hours and adding one or more carrier oils. The carrier oils comprise black pepper oil, turmeric oil, peppermint oil (alternately, eucalyptus or naioli oils will suffice since they contain similar compounds), lemon oil, magnesium oil, St John's Wort oil, arnica oil, parsley oil, cinnamon oil, lemongrass oil, ginger oil, arnica oil (comprises helenalin, fatty acids (inolenic, palmitic, linoleic, and myristic) thymol, ethers of thymol, thymohydroquinone dimethyl ether, and phlorol isobutyrate (2%)), Ylang Ylang (Cananga odorata) oil (comprises linalool, caryophyllene and germacrene), and/or Black Seed oil (comprises anethole, p-cymene, limonene, carvone and thymoquinone). […] FIG. 2 provides a table 200 listing primary herbal extract sources 210 and secondary ingredients 220, including but not limited to dermal absorption enhancers 222, alkaloid potentiators 224, neuropathic relief agents 226, and anti-inflammation agents 228.
In yet another embodiment, a severe pain and inflammation relief formulation involves extracting alkaloids from kratom powder into a food-grade oil at 160° F. for two hours and adding one or more carrier oils. The carrier oils comprise black pepper oil, turmeric oil, peppermint oil, lemon oil, magnesium oil, St. John's Wort oil, arnica oil, and ginger oil. The kratom powder may be a combination of concentrated kratom extract and kratom powder. […]

| Compound | increase of the effect of a formulation (duration) (added to the formulation as alkaloid potentiator) | notable effect of secondary ingredient added to formulation |
| --- | --- | --- |
| Oc1ccc(/C=C/c2cc(O)cc(O)c2)cc1 [Trans-resveratrol] | approximately two hours or longer |  |
| O=c1c(O)c(-c2ccc(O)c(O)c2)oc2cc(O)cc(O)c12 [quercetin] |  | decreased pain and inflammation |
| copper salicylate |  | minor improvement to pain relief |
| magnesium stearate |  | relieved muscle spasms |
